# Reference: patent publication US20160045487A1, “COMPOSITIONS AND METHODS FOR TREATING NEUROPATHY” (CHILDEREN'S MEDICAL CENTER CORPORATION, priority 2013, published 2016)
# Experiments:
# [1] = tested on: GFAP-DN-erbB4 and wild type mice; experiment: Mechanical sensitivity (von Frey filaments); assay type: in vivo, mouse; conditions: after 4 weeks topical treatment, cream 1.5 mM
# Experimental: As a first test, a cream containing XIB4035 (1.5 mM) was applied directly to the hind paws of GFAP-DN-erbB4 and wild type mice twice daily for a period of 4 weeks starting prior to symptom onset (P21). Mice of both genotypes were also treated with the base cream containing no drug for control. Mice were tested for responses to a noxious thermal stimulus prior to the initiation of treatment and every 7 days for the duration of the experiment.
# Mechanical sensitivity was tested by simulation of the plantar surface of the hind paw with a series of von Frey filaments while the animal was placed on an elevated wire grid. The threshold was determined as the lowest force that evoked a visible withdrawal response. The use of animals was approved by the Animal Care and Use Committee of Children's Hospital Boston.
# GFAP-DN-erbB4 mice = experiment: IB4 staining of C-fiber terminals in lamina II of spinal cord dorsal horn; assay type: in vivo, mouse; conditions: cream P28-P35; n=6
# Experimental: However, in the clinic, therapy would almost certainly begin after patients present with symptoms of SFN. Therefore, it was determined whether topical XIB4035 can act as a disease-modifying agent in the GFAP-DN-erbB4 neuropathy model starting after animals are clearly symptomatic (P28). […] While IB4 labeling in mutant mice was lower than wild types regardless of treatment, IB4 signal was clearly present in mutant mice treated with XIB4035 while absent in those treated with control cream (FIG. 3D; 83% of XIB4035 treated mice (n=6) with IB4+ lamina II terminals vs 0% (n=4) in control treated mice) (FIG. 3D).
# Spinal cords were collected from mice anesthetized with 2.5% Avertin, immersion fixed in 4% paraformaldehyde in 0.1 M phosphate buffer (pH 7.4) for 2 hours at 4° C., and cryoprotected in 20% sucrose overnight at 4° C. Tissue was embedded in OCT, sectioned at 15 μm, and stained mounted on slides. Tissue was blocked for 30 minutes in 0.1M PB+0.3% Triton-X 100+10% normal goat serum and incubated with TrpV1 rabbit polyclonal antibody (AbCAM, 1:2000) and Alexa-488 conjugated isolectin-B4 overnight at 4° C. Sections were washed 3 times for 30 minutes in 0.1M PB+0.3% Triton-X 100+10% normal goat serum followed by incubation with goat anti-rabbit Alexa-594 (Invitrogen) 1:1000 for 1 hour at room temperature.
# Spinal cord images were acquired using a Zeiss Axioscope microscope. […]
# [2] = tested on: mutant and wild type mice; experiment: Observation for side effects of chronic topical treatment; assay type: in vivo, mouse; conditions: treated twice a day for 7 weeks
# From the text: Importantly, given the potential need for chronic application of XIB4035, the question of whether XIB4035 produces side effects in both mutant and wild type mice was examined.
# [3] = tested on: GFRα/RET receptor signaling; experiment: Tyrosine hydroxylase promoter luciferase reporter assay in SH-SY5Y-THpGL3 cells; assay type: cell-based, human; conditions: for effect in the TH-luciferase assay: XIB4035 alone
# From the text: One goal of these studies was to determine if XIB4035 could be used for treating SFN in humans. Using the Neuro2A (N2A) murine neuroblastoma cell line, Tokugawa et al. (supra) reported XIB4035 as a competitive agonist for the GDNF receptor GFRα1 that activates the RET receptor. Since populations of DRG sensory neurons express different GFRα receptors, thus making them preferentially responsive to the particular ligands, it was important to determine if XIB4035 was specific to GFRα1 or could act on other family members. Since PSPN has no effect on peripheral sensory neurons, the GFRα1, GFRα2, and GFRα3 receptors were the focus of these studies. The SH-SY5Y, a human neuroblastoma cell line expressing mRNA for GFRα1, GFRα2, and GFRα3, was used to perform two cell-based assays; immunoblots measuring RET phosphorylation and a luciferase reporter assay using the tyrosine hydroxylase (TH) promoter. For the latter two paradigms were used, either overnight treatment immediately followed by luciferase activity measurements or 10 minute treatments followed by washout and overnight incubation prior to measurements. GDNF and ARTN induced robust TH-luciferase activity in a dose dependent manner (FIG. 3E). Because the responses to GDNF and ARTN were more robust, these two factors were chosen for further analysis.
# The tyrosine hydroxylase promoter was cloned into the pGL3 basic vector (Promega, Madison, Wis., USA) at the Mlu I and Hind III sites, as previously described (Zwick, supra) (TH-pGL3). Briefly, a 2 Kb promoter region upstream from the transcription initiation site of the rat TH gene was cloned from genomic DNA using the primer sequences, […] and […]. SH-SY5Y cells were co-transfected with the TH-pGL3 and the pBabe-puromycin expression vectors at a molar ratio of 10:1. Cells were selected for stable puromycin resistance at a final concentration of 0.5 μg/ml of puromycin-dihydrochloride. Stable colonies were selected and tested for TH-directed luciferase response to GDNF family ligand stimulation. One stable clone, SH-SY5Y-THpGL3, with good signal-to-noise ratio was selected for use in the experiments.
# SH-SY5Y-THpGL3 cells were maintained in DMEM/F12, 5% FBS, and 1% penicillin/streptomycin and plated on collagen coated plates (4 μg/ml). Neuro-2A cells were grown in MEM, 5% FBS, and 1% penicillin/streptomycin. BE(2)-C cells were grown in DMEM/F12 media containing 5% FBS and 1% penicillin/streptomycin. PC-12 cells were maintained in media containing RPMI-1640, 10% horse serum, 5% FBS, and 1% penicillin/streptomycin on collagen coated plates. For luciferase assays, cells were treated for either 10 minutes with washout or overnight with various molecules and assayed for firefly luciferase 16-24 hours post-treatment using the luciferase assay system (Promega, Madison, Wis., USA).
# ErbB2/ErbB3 = target: T1, ErbB2/ErbB3 (Rattus norvegicus, UniProt P06494+Q62799); experiment: NRG1-dependent activation of ErbB2/ErbB3 in L6 muscle cells; assay type: cell-based
# T1 construct: endogenous in cells; host or cells: L6 muscle cells
# T1 sequence (P06494 23-1257): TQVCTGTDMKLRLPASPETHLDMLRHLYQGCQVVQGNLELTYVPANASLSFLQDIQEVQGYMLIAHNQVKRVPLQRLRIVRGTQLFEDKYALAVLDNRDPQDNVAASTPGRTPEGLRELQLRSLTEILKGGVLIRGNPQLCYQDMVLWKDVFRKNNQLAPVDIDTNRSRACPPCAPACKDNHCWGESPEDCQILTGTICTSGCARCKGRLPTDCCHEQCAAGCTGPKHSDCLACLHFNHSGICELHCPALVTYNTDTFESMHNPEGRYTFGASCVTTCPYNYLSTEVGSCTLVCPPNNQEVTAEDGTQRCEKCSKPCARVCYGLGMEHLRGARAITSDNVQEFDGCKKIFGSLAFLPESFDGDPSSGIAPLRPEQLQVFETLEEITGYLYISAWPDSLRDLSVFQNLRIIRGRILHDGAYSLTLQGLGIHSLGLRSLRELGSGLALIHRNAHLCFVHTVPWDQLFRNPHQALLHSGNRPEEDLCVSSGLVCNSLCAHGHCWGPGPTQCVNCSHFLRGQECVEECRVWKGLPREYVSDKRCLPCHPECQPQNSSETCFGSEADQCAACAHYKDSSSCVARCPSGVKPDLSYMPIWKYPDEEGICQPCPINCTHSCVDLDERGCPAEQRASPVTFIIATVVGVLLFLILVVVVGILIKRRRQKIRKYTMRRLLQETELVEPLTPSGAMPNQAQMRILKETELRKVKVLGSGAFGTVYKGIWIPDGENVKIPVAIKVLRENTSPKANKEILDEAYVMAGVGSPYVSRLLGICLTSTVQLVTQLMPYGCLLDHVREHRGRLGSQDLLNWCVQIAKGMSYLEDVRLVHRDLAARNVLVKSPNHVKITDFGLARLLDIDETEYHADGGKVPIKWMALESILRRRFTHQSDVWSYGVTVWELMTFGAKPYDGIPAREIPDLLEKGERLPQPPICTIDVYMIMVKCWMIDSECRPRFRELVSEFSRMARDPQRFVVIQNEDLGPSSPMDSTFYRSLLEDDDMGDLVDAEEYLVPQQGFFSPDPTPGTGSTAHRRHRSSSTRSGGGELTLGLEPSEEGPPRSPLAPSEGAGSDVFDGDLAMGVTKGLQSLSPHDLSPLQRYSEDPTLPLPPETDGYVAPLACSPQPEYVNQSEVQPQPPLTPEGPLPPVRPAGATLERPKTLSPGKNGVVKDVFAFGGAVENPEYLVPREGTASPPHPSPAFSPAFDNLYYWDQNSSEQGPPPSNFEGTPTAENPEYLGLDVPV
# T1 sequence (Q62799 20-1339): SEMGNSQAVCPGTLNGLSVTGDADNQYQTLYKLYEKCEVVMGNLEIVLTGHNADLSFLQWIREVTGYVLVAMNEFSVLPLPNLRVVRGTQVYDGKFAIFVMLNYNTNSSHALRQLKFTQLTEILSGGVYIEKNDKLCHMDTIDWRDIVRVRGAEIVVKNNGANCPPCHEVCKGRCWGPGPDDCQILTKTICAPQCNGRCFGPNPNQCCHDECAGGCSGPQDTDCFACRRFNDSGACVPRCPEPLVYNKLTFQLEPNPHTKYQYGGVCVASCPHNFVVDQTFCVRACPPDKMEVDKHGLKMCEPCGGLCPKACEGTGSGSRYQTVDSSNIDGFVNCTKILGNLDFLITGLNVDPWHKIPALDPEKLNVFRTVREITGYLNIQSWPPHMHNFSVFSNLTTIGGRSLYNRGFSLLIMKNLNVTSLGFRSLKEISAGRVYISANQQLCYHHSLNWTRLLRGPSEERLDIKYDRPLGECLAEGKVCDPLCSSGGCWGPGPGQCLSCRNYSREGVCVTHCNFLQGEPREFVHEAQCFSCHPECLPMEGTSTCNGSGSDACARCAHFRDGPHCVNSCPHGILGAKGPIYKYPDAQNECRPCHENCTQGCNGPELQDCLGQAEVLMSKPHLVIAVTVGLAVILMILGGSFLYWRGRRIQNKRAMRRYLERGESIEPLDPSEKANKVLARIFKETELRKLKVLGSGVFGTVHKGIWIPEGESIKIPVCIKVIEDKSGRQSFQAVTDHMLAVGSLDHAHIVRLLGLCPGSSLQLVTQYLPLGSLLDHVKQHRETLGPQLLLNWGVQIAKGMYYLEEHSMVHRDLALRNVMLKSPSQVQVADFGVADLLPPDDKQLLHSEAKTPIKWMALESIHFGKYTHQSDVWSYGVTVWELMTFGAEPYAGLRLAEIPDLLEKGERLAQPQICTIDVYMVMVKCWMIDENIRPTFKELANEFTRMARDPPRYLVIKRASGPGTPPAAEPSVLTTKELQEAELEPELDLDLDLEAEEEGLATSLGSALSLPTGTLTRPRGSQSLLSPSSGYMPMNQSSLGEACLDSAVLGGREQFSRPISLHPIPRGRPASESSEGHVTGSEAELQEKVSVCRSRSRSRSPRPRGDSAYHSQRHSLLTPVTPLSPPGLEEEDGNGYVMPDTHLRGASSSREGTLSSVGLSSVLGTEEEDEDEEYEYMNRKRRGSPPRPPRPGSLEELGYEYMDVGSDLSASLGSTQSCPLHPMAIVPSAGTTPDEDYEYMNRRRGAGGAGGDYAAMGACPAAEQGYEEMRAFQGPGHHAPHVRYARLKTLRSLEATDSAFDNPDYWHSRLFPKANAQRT
smiles,measurement,setting,value
"CCN(CC)CCCC(C)Nc1cc(/C=C/c2ccccc2Cl)nc2cc(Cl)ccc12 (centres unmarked) [XIB4035, N4-{7-chloro-2-[(E)-2-(2-chloro-phenyl)-vinyl]-quinolin-4-yl}-N1,N1-diethyl-pentane-1,4-diamine]",effect on mechano-reception (response thresholds to mechanical stimuli),[1],no effect
same,treated mice with IB4+ lamina II terminals,GFAP-DN-erbB4 mice,83%
same,"changes in appearance, food intake, skin health or other outward negative signs",[2],no changes
same,"maximal effect, luciferase activity",[3]; 18 nM ARTN + 20 μM XIB4035,3.61±0.47 fold over control
same,"maximal effect, luciferase activity",[3]; 18 nM GDNF + 20 μM XIB4035,3.41±0.41 fold over control
same,minimal ARTN dose necessary to induce luciferase activity above control,"[3]; ARTN + 20 μM XIB4035, 10 minutes, washout, overnight",2.7 pM
same,minimal GDNF dose necessary to induce luciferase activity above control,"[3]; GDNF + 20 μM XIB4035, 10 minutes, washout, overnight",2.7 pM
same,effect in the TH-luciferase assay,"[3]; 10 minute treatment, 1-15 μM, washout, overnight incubation",no effect
same,effect in the TH-luciferase assay,"[3]; overnight treatment, 6.25-500 nM",no effect
same,effect on ligand-induced TH-luciferase activity,[3]; co-treatment with either GDNF or ARTN over a range of doses,significantly potentiates
same,NRG1-dependent activation of ErbB2/ErbB3,ErbB2/ErbB3,did not influence
